Assay results taken from the supplement of paper PMC11061612.

Tests used:
Assay in all cases: combination Emax (second highest fraction inhibited in the dose matrix, 72 h); higher = more inhibition; extreme values may be limits of the assay
[1] = tested on: OAW-42 (Ovarian Carcinoma)
In short: (§1)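 Cell lines in DMEM/F12 or RPMI with 10% FBS were plated in 1536-well plates, held 24 hours at 37°C, 5% CO2, then given two-drug dose matrices for 72 hours (DMSO typically 0.2%). Viability was read by CellTiter-Glo 2.0 luminescence and scaled as inhibition from 0 (vehicle wells) to 1 (blank wells). Combination Emax is the second-highest inhibition in the matrix; Bliss excess is observed combination effect minus expected EA + EB − EA·EB, EA and EB being single-agent effects.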

[2] = tested on: WM793B (Melanoma)
In short: as §1

[3] = tested on: LXF-289 (Lung Adenocarcinoma)
In short: as §1

[4] = tested on: NCI-H23 (Lung Adenocarcinoma)
In short: as §1

[5] = tested on: LB996-RCC (Kidney Carcinoma)
In short: as §1

[6] = tested on: CAL-62 (Thyroid Gland Carcinoma)
In short: as §1

Structure (SMILES) | combination Emax [1] | combination Emax [2] | combination Emax [3] | combination Emax [4] | combination Emax [5] | combination Emax [6]
CN(CCO)CC[C@H](CSc1ccccc1)Nc1ccc(S(=O)(=O)NC(=O)c2ccc(N3CCC([C@@H](O)c4ccccc4-c4ccc(Cl)cc4)CC3)cc2)cc1S(=O)(=O)C(F)(F)F [AZD4320] + Cn1cnc2c(F)c(Nc3ccc(Br)cc3Cl)c(C(=O)NOCCO)cc21 [Selumetinib] (first compound max 1 µM, 7x7, partner max 3 µM) | 0.436 | 0.578 | 0.314 | 0.435 | 0.513 | –
CN(C)CCCOc1ccc(-c2ccc3ncc4c(c3c2)n(C2CCOCC2)c(=O)n4C)cn1 [AZD0156] + C[C@@H]1COCCN1C2=NC(=NC(=C2)C3(CC3)[S@](=N)(=O)C)C4=C5C=CNC5=NC=C4 [AZD6738] (first compound max 1 µM, 7x7, partner max 10 µM) | – | 0.891 | 0.573 | 0.786 | 0.581 | 0.755
CN(C)CCCOc1ccc(-c2ccc3ncc4c(c3c2)n(C2CCOCC2)c(=O)n4C)cn1 [AZD0156] + CCN(CCO)CCCOc1ccc2c(Nc3cc(CC(=O)Nc4cccc(F)c4)[nH]n3)ncnc2c1 [AZD2811] (first compound max 1 µM, 7x7, partner max 1 µM) | – | 0.323 | 0.507 | 0.151 | 0.362 | 0.182
CN(C)CCCOc1ccc(-c2ccc3ncc4c(c3c2)n(C2CCOCC2)c(=O)n4C)cn1 [AZD0156] + C=CCn1c(=O)c2cnc(Nc3ccc(N4CCN(C)CC4)cc3)nc2n1-c1cccc(C(C)(C)O)n1 [AZD1775] (first compound max 1 µM, partner max 1 µM) | – | 0.452 | 0.264 | 0.815 | 0.801 | 0.709
C=CCn1c(=O)c2cnc(Nc3ccc(N4CCN(C)CC4)cc3)nc2n1-c1cccc(C(C)(C)O)n1 [AZD1775] + O=C(c1cc(Cc2n[nH]c(=O)c3ccccc23)ccc1F)N1CCN(C(=O)C2CC2)CC1 [Olaparib] (first compound max 1 µM, partner max 10 µM) | – | 0.501 | 0.355 | 0.761 | 0.845 | 0.796
COc1cccc(OCCCN)c1-c1cc(Nc2cnc(C#N)cn2)n[nH]1 [Prexasertib] + CN(C)CCCOc1ccc(-c2ccc3ncc4c(c3c2)n(C2CCOCC2)c(=O)n4C)cn1 [AZD0156] (first compound max 1 µM, 7x7, partner max 1 µM) | – | 0.903 | 0.772 | 0.882 | 0.712 | 0.735
CCN(CCO)CCCOc1ccc2c(Nc3cc(CC(=O)Nc4cccc(F)c4)[nH]n3)ncnc2c1 [AZD2811] + O=C(c1cc(Cc2n[nH]c(=O)c3ccccc23)ccc1F)N1CCN(C(=O)C2CC2)CC1 [Olaparib] (first compound max 1 µM, 7x7, partner max 10 µM) | – | 0.359 | 0.555 | 0.235 | 0.315 | 0.277
C[C@@H](c1ccc2nccn2c1)n1nnc2ncc(-c3cnn(C)c3)nc21 [Savolitinib] + CN(CC[C@H](CSC1=CC=CC=C1)NC2=C(C=C(C=C2)S(=O)(=O)NC(=O)C3=CC=C(C=C3)N4CCC(CC4)[C@H](C5=CC=CC=C5C6=CC=C(C=C6)Cl)O)S(=O)(=O)C(F)(F)F)CCO [AZD4320] (first compound max 1 µM, 7x7, partner max 1 µM) | 0.275 | 0.137 | 0.188 | 0.316 | 0.19 | –
CCc1c2c(nc3ccc(O)cc13)-c1cc3c(c(=O)n1C2)COC(=O)[C@]3(O)CC [SN-38] + O=C(c1cc(Cc2n[nH]c(=O)c3ccccc23)ccc1F)N1CCN(C(=O)C2CC2)CC1 [Olaparib] (first compound max 0.3 µM, 7x7, partner max 10 µM) | – | – | – | – | 0.854 | 0.911
COc1cccc2c1C(=O)c1c(O)c3c(c(O)c1C2=O)C[C@@](O)(C(=O)CO)C[C@@H]3O[C@H]1C[C@H](N)[C@H](O)[C@H](C)O1 [Doxorubicin] + Cc1cc2ncnn2cc1Nc1ncc2c(n1)n(C1CCOCC1)c(=O)n2C [AZD7648] (first compound max 1 µM, 7x7, partner max 10 µM) | – | 0.801 | 0.4 | 0.588 | 0.796 | 0.817
Cc1cc2ncnn2cc1Nc1ncc2c(n1)n(C1CCOCC1)c(=O)n2C [AZD7648] + CCN(CCO)CCCOc1ccc2c(Nc3cc(CC(=O)Nc4cccc(F)c4)[nH]n3)ncnc2c1 [AZD2811] (first compound max 10 µM, 7x7, partner max 1 µM) | – | 0.411 | 0.395 | 0.228 | 0.363 | 0.368
COc1cccc(OCCCN)c1-c1cc(Nc2cnc(C#N)cn2)n[nH]1 [Prexasertib] + O=C(c1cc(Cc2n[nH]c(=O)c3ccccc23)ccc1F)N1CCN(C(=O)C2CC2)CC1 [Olaparib] (first compound max 1 µM, 7x7, partner max 10 µM) | – | 0.873 | 0.783 | 0.879 | 0.759 | 0.779
Cc1cc2ncnn2cc1Nc1ncc2c(n1)n(C1CCOCC1)c(=O)n2C [AZD7648] + CN(C)CCCOc1ccc(-c2ccc3ncc4c(c3c2)n(C2CCOCC2)c(=O)n4C)cn1 [AZD0156] (first compound max 10 µM, 7x7, partner max 1 µM) | – | 0.361 | 0.201 | 0.103 | 0.339 | 0.321
